{"source": "paper PMC4402537", "about": "“mRNA maturation in giant viruses: variation on a theme” (Nucleic Acids Research, 2015)", "key": {"[1]": {"molecular_target": "T1, Mg561 (H6c-Mg561) (Megavirus chiliensis, UniProt G5CT11)", "T1 construct": "gene mchi_555; full length, N-terminal His6 tag removed by HRV 3C protease; E. coli Rosetta (DE3)", "T1 sequence (G5CT11 1-531)": "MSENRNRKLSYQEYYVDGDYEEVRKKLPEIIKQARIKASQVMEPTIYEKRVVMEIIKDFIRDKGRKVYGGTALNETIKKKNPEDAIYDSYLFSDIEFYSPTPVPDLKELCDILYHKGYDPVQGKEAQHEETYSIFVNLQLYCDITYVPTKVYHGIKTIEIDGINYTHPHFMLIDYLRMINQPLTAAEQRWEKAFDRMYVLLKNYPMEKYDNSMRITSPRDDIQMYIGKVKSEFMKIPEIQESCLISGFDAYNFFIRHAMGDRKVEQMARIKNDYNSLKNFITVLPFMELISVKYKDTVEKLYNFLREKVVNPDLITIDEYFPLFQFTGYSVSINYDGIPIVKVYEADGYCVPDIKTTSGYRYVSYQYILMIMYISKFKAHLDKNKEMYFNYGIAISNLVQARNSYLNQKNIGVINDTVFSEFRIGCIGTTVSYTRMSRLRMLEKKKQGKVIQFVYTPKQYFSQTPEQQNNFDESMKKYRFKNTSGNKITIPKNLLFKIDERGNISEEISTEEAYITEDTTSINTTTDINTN", "assay": "in vitro polyU tailing of […]-labelled 20-mer RNA, urea-PAGE", "type": "biochemical", "conditions": "100 μM UTP in place of ATP, Mn2+ (similar with Mg2+), pH 7.5, 30°C"}, "[2]": {"molecular_target": "Mimivirus polyA polymerase R341, after tag removal (H6c-R341) (Mimivirus)", "assay": "SEC; gel filtration of purified proteins, GE Healthcare markers for calibration"}, "[3]": {"molecular_target": "Megavirus chilensis polyA polymerase Mg561, after tag removal (H6c-Mg561) (Megavirus chilensis)", "assay": "SEC; gel filtration of purified proteins, GE Healthcare markers for calibration"}, "[4]": {"molecular_target": "Megavirus chilensis Mg18 protein with N-terminal His6 tag (H6c+Mg18) (Megavirus chilensis)", "assay": "BLI"}, "[5]": {"molecular_target": "T2, Mg18 (H6c+Mg18) (Megavirus chiliensis, UniProt G5CQI9)", "T2 construct": "gene mchi_21; full length, N-terminal His6 tag kept; E. coli Rosetta (DE3)", "T2 sequence (G5CQI9 1-340)": "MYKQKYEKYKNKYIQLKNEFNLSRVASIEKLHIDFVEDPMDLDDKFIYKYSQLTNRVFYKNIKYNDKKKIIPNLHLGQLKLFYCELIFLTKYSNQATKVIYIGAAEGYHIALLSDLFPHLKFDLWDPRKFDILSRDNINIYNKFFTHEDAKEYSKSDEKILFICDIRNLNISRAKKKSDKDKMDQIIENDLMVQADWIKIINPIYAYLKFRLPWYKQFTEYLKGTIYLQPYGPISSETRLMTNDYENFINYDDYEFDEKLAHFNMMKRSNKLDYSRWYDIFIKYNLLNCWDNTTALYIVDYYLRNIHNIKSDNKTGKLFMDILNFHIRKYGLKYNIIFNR", "assay": "methyl transfer from 3H-AdoMet to RNA, DEAE filter binding", "type": "biochemical", "conditions": "10 μM AdoMet, GpppAN13, 7MeGpppAN13 or poly(A) RNA 0.7 μM, 1 mM MgCl2, pH 7.5, 30°C; labelled compound"}, "[6]": {"molecular_target": "T1, Mg561 (H6c-Mg561)", "assay": "in vitro polyadenylation of […]-labelled 20-mer RNA, urea-PAGE", "type": "biochemical", "conditions": "100 μM ATP, 5 mM MgCl2 or 0.5 mM MnCl2, pH 7.5, 30°C"}, "[7]": {"molecular_target": "T3, R341 (H6c-R341) (Acanthamoeba polyphaga mimivirus, UniProt Q5UQS6)", "T3 construct": "gene MIMI_R341", "conditions": "100 μM ATP, 5 mM MgCl2 or 0.5 mM MnCl2, pH 7.5, 30°C"}}, "note": "pKd: −log10 of the molar value."}
{"compound": "O=c1ccn([C@@H]2O[C@H](COP(=O)(O)OP(=O)(O)OP(=O)(O)O)[C@@H](O)[C@H]2O)c(=O)[nH]1", "note": "[UTP]", "values": [{"measurement": "in vitro polyU tailing of 32P-labelled 20-mer RNA, urea-PAGE", "setting": "[1]", "value": "Mg561 was also able to add long polyU tails, although with a reduced activity"}]}
{"compound": "Mimivirus polyA polymerase R341, after tag removal (H6c-R341) (enzyme)", "values": [{"measurement": "stoichiometry N", "setting": "[2]", "value": 2}]}
{"compound": "Megavirus chilensis polyA polymerase Mg561, after tag removal (H6c-Mg561) (enzyme)", "values": [{"measurement": "stoichiometry N", "setting": "[3]", "value": 2}, {"measurement": "pKd", "setting": "[4]", "value": 5.21}]}
{"compound": "C[S+](CC[C@H](N)C(=O)O)C[C@H]1O[C@@H](n2cnc3c(N)ncnc32)[C@H](O)[C@@H]1O", "note": "(stereo partly shown) [AdoMet]", "values": [{"measurement": "methyl transfer from 3H-AdoMet to RNA, DEAE filter binding", "setting": "[5]", "value": "Mg18 had comparable activity with 7MeGpppAN13 and GpppAN13"}]}
{"compound": "Nc1ncnc2c1ncn2[C@@H]1O[C@H](COP(=O)(O)OP(=O)(O)OP(=O)(O)O)[C@@H](O)[C@H]1O", "note": "[ATP]", "values": [{"measurement": "in vitro polyadenylation of 32P-labelled 20-mer RNA, urea-PAGE", "setting": "[6]", "value": "synthesize long products, apparently proccessively, derived from the RNA and ATP"}, {"measurement": "in vitro polyadenylation of 32P-labelled 20-mer RNA, urea-PAGE", "setting": "[7]", "value": "synthesize long products, apparently proccessively, derived from the RNA and ATP"}]}
